According to publication PMC5433438 (Bioorganic & Medicinal Chemistry, 2015):

Biological target: HKU4-CoV 3CL^pro (Bat coronavirus HKU4, UniProt P0C6W3)
Assay type: biochemical, Tylonycteris bat coronavirus HKU4

Sequence of HKU4-CoV 3CL^pro (P0C6W3 3292-3597 limits assumed): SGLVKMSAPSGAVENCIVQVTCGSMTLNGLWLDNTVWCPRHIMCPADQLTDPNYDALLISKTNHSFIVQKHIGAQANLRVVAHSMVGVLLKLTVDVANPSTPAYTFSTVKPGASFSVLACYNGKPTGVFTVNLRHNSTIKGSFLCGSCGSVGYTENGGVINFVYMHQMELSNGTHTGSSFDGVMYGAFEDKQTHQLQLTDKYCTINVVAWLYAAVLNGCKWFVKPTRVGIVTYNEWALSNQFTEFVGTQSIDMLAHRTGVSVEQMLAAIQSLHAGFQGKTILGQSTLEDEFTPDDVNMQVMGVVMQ

## O=C(Cn1nnc2ccccc21)NCc1ccsc1 [22A, 2-(1H-Benzo[d][1,2,3]triazol-1-yl)-N-(thiophen-3-ylmethyl)acetamide]
  increase in IC50: greater than 200 fold

## O=C(Nc1ccc(N(Cc2ccsc2)C(=O)Cn2nnc3ccccc32)cc1)c1cccs1 [1A]
  IC50 (μM): sub-micromolar

## O=C(Nc1ccc(N(Cc2ccsc2)C(=O)Cn2nnc3ccccc32)cc1)c1ccccc1 [2A]
  IC50 (μM): sub-micromolar

## CC(C)C(=O)Nc1ccc(N(Cc2ccsc2)C(=O)Cn2ccnn2)cc1 [19A]
  decrease in inhibitory potency between the analogs: ten-fold

## O=C(Cn1nnc2ccccc21)N(Cc1ccsc1)c1ccc(-c2ccncc2)cc1 [5A]
  fold more active: 2 fold

## CC(=O)Nc1ccc(N(C(=O)Cn2nnc3ccccc32)C(C(=O)NC(C)(C)C)c2ccsc2)cc1 (stereo not shown) [3B]
  increase in IC50: 5 fold

## O=C(Cn1nnc2ccccc21)N(Cc1ccsc1)c1ccc(NCc2ccccc2)cc1 [17A]
  increase in IC50: 10 fold
